Earlier results on 1 compound are cited in US11452694B2, “High concentration dosage forms of pridopidine” (PRILENIA NEUROTHERAPEUTICS LTD., priority 2017, dated 2022).

In the series the test system is neuroblastoma cell line. As to conditions: SIR-dependent manner.

Turning to `CCCN1CCC(c2cccc(S(C)(=O)=O)c2)CC1` [Pridopidine, 4-(3-(Methylsulfonyl)phenyl)-1-propylpiperidine], the “secretion of brain-derived neurotrophic factor (BDNF)” value was “enhance secretion”.
